Measured values published in patent US11331375B2, “Compositions and methods for regulating leukocyte adhesion” (University of Virginia Patent Foundation, priority 2015, dated 2022).

Assays:
HUVEC = assay: In vitro ATP release assay (luciferin:luciferase), HUVEC; format: cell-based, human; conditions: for reduction of TNFα-mediated ATP release: CBX 50 μM, ^10panx1 200 μM; for effect of inhibitor on TNFα-induced ATP release: antagonist 30 min, WP9QY 10 μM, La3+ 100 μM, BFA 5 μg/mL, RuR 20 μM, PP2/PP3 10 μM, Q-VD-OPh 100 μM
Experimental: (§1) In vitro Human arterial and venous ECs were seeded in 24-well plates pre-coated with 0.2% gelatin and grown to confluency. On the day of experiment, the media was removed from each well and cells were carefully washed twice with warm serum free basal EC medium supplemented with 1% BSA. Cells were then incubated in 300 μL of fresh basal EC medium supplemented with 1% BSA for 30 minutes at 37° C. to allow degradation of extracellular ATP released due to mechanical stimulation during washes. Endogenous ecto-nucleotidases were inhibited by incubating EC monolayers with 300 μM ARL 67156 (Tocris) for 30 minutes at 37° C. Cells were then stimulated with recombinant human TNFα (R&D Systems). For dose response experiments, ECs were incubated with 0.1, 1, 5, 10, 50, or 100 ng/mL recombinant TNFα for 30 minutes at 37° C. For time-course experiments, ECs were stimulated with 10 ng/mL recombinant TNFα for different time points up to 1 hour. In experiments where pharmacological inhibitors were employed, ECs were incubated with antagonists in parallel with ARL 67156 for 30 minutes. To inhibit TNFR1, ECs were incubated with the peptide antagonist of the receptor WP9QY (10 μM; Anaspec). […] Cx hemichannels were inhibited with lanthanum (La^3+; 100 μM; Sigma) and Panx1 channels were blocked with carbenoxolone (CBX; 50 μM; Sigma) and the inhibitory peptide ^10panx1 (200 μM; Genscript). […] The role of caspase activation was assessed by inhibition with the pan-caspase blocker Q-VD-OPh (100 μM; Sigma). Following stimulation with TNFα or vehicle, 150 μL of the cell supernatant was collected and immediately placed into pre-chilled 1.5 mL Eppendorf tubes on ice. All samples were centrifuged at 10,000×g for 5 minutes and 50 μL of each sample was transferred to a white, opaque 96-well plate. Using a FluoStar Omega luminometer, 50 μL of luciferin:luciferase reagent (ATP bioluminescence assay kit HSII; Roche) was injected into each well and luminescence was recorded following a 5s orbital mix. ATP concentration in each sample was calculated from a standard curve for all experiments. Data are presented as a % change in ATP release from baseline (i.e. unstimulated cells) and expressed as mean±SEM (n=5 independent experiments with triplicate measurements).

[1] = test system: THP-1 monocyte adhesion to HUVEC; assay: Static adhesion assay, THP-1 monocytes on HUVEC; format: cell-based, human; conditions: HUVEC treated with inhibitor prior to TNFα stimulation
Experimental: HUVECs were seeded on gelatin-coated glass coverslips in 6-well plates and grown to confluence. On the day of the experiment, cells were washed 2× with 1× PBS and incubated for 30 minutes in basal EGM supplemented with 1% BSA in the presence or absence of pharmacological inhibitors. During this incubation period, human THP-1 monocytes were loaded with Calcein-AM (Invitrogen; 5 μg/mL) for 30 minutes at 37° C. Cells were then pelleted by brief centrifugation and excess calcein was removed by washing THP-1 cells 3 times in 1× PBS. Next, HUVECs were stimulated with TNFα (10 ng/mL) for 30 minutes. Following EC activation, calcein-loaded THP-1 monocytes were added to EC monolayers and incubated for 20 minutes at 37° C. to allow THP-1 to contact ECs. Monolayers were then washed 3× with 1× PBS and fixed in ice cold 4% PFA. Following fixation, coverslips were removed from the 6-well plates and mounted on glass microscope slides with Prolong Gold anti-fade mountant with DAPI (Life Technologies). Fluorescent micrographs were obtained at 10×magnification and the number of adherent THP-1 monocytes/ECs was quantified in 5 randomized regions/slide. Data are expressed as mean±SEM (n=3 independent experiments).

HSaVEC = assay: In vitro ATP release assay (luciferin:luciferase), HSaVEC; format: cell-based, human; conditions: for inhibition of TNFα-mediated ATP release: CBX, ^10panx1; for effect of inhibitor on TNFα-induced ATP release: antagonist 30 min, WP9QY 10 μM, BFA 5 μg/mL, RuR 20 μM, PP2/PP3 10 μM
Experimental: as §1

Panx1 = assay: Western blot of Panx1 phosphorylation at Y198 in venous ECs; format: cell-based, human
Experimental: (§2) Following stimulation with TNFα (in vitro: 10 ng/mL; ex vivo: 50 ng/mL), confluent endothelial cell monolayers or isolated mesenteric venules were homogenized in ice cold Triton extraction buffer (50 mM Tris-HCL, 150 mM NaCl , 5 mM EDTA, 1% deoxycholate, 1% NP-40 and 1% Triton-X100 in phosphate buffered saline and pH adjusted to 7.4) containing protease and phosphatase inhibitors. Cell/Tissue lysates were incubated with rotation at 4° C. for 20 minutes to solubilize proteins, followed by centrifugation for 5 minutes at 13,000× g to pellet cell debris. Protein concentration was quantified using the BCA method. 15-20 μg of total protein was subjected to SDS gel electrophoresis using 4-12% Bis-Tris gels (Invitrogen) and transferred to nitrocellulose membranes for immunoblotting. Membranes were blocked for 1 hr at room temperature with LiCOR blocking solution, then incubated overnight at 4° C. with primary antibodies against pY416SFKs, (BD Biosciences; 1:1000) pY198Panx1 (Alpha Diagnostic Intl (ADI); 1:1000) and GAPDH (Sigma; 1:10,000) or an antibody against the intracellular loop of Panx1 (Panx1-IL) (ADI; 1:1000) (normalization controls). Membranes were then washed and incubated with LiCOR secondary antibodies (1:10,000) and visualized and quantitated using LiCOR Odyssey. To inhibit SFK activity, EC monolayers were incubated with the SFK inhibitor PP2 (Tocris; 10 μM). […] To show specificity for the phosphorylated form of SFKs and Panx1, cell lysates were incubated with alkaline phosphatase for 1 hour at 37° C. Western blot images have been cropped for presentation. Uncropped Western blots can be found in FIGS. 12-13. Data are expressed as mean±SEM (n=3 independent experiments).

[2] = test system: isolated murine mesenteric venules; assay: Ex vivo vascular perfusion ATP release assay, mesenteric venules; format: cell-based, mouse; conditions: WP9QY 10 μM, PP2 10 μM
Experimental: For isolated blood vessel experiments, 2nd order venules or arterioles were dissected from the mouse mesentery circulation and cannulated on glass micropipettes to access the vessel lumen. […] Vessels were then perfused with MOPS PSS containing 300 μM ARL 67156 +/− pharmacological inhibitors and incubated for an additional 20 minutes prior to perfusion with MOPS PSS containing recombinant murine TNFα (R&D Systems). Aliquots of the lumenal perfusate were collected every 5 minutes for a 25-minute period and the ATP concentration was quantified by bioluminescence as described above. Data are expressed as mean±SEM (n=4 independent experiments).

Src Family Kinases (SFK) = assay: Western blot of SFK activation (pY416SFK) in venous ECs; format: cell-based, human; conditions: HUVEC and HSaVEC; PP2/PP3 10 μM
Experimental: as §2

C57B1/6J mice = assay: Intravital microscopy of cremaster muscle for leukocyte adhesion and emigration; format: in vivo, mouse; conditions: control C57B1/6J mice, tamoxifen 10 consecutive days
Experimental: Mice were prepared for intravital microscopy of the cremaster muscle as described previously^25. Briefly, mice were anesthetized with ketamine hydrochloride (150 mg/kg, IP) and xylazine (7.5 mg/kg, IP). The cremaster was isolated, laid over a viewing pedestal, superfused with bicarbonate-buffered saline. After 30 min equilibration, a venule with a wall shear rate (WSR) of ≥500/s, diameter between 20 μm and 40 μm, and the least number of adherent and emigrated leukocytes was chosen for further study. A 1 min baseline recording was made, after which superfusion was stopped, and 50 μl TNFα (1.7 ng/ml in 0.1% BSA) or vehicle control was added under a saran wrap cover every 30 min. 1 min recordings were made just prior to each addition, for 3 hrs. The TNFα was initially reconstituted in PBS at 3.4 ng/ml and 150 μl aliquots were frozen. An aliquot was mixed 1:1 with BBS containing 0.2% BSA at the time of the experiment. Leukocyte adhesion and emigration were determined by off-line analysis. Leukocytes were considered adherent if they stopped for at least 30 s (expressed as #/mm^2 vessel wall), and emigrated leukocytes were leukocytes identified in the interstitium (expressed as #cells/mm^2 tissue). Data are expressed as mean±SEM (n=6-7 independent animals/group).

pannexin1 channel = pannexin1 channel (Homo sapiens, UniProt Q96RD7); conditions: cited from earlier work
Panx1 channels in HUVEC = target: T1, Panx1 channels in HUVEC (Homo sapiens, UniProt Q96RD7); assay: YO-PRO-1 dye uptake assay; format: cell-based; conditions: ^10panx1 200 μM, TNFα 10 ng/mL 30 minutes
T1 construct: Primary human umbilical vein endothelial cells (HUVEC) were purchased from Cell Applications; PromoCell 200K-05; C-12231; host or cells: HUVEC, HSaVEC (primary human venous endothelial cells)
Experimental: HUVECs were cultured on poly-L-lysine coated coverslips and grown to confluence in EGM. Cells were washed three times with 1× PBS and incubated in fresh EGM for 30 minutes prior to stimulation. To stimulate YO-PRO-1 dye uptake, YO-PRO-1 (1 μM) was added to the media and EC monolayers were treated with TNFα at a range of concentrations (0.1 ng/mL-100 ng/mL) for 30 minutes. At the end of the stimulation, cells were washed 3× with 1× PBS and immediately fixed in 4% PFA. Coverslips were then mounted on microscope slides with DAPI ProlongGold mounting agent and visualized on an Olympus IX81 laser scanning confocal microscope. Dye uptake was quantified as the intensity of YO-PRO-1 fluorescence over time using ImageJ software. For time course analysis, YO-PRO-1 was added to the culture media at various time points after TNFα stimulation and incubated to the 30-minute time point. Data are expressed as mean±SEM (n=3 independent experiments).

pannexin1 channel, sequence (Q96RD7 whole entry): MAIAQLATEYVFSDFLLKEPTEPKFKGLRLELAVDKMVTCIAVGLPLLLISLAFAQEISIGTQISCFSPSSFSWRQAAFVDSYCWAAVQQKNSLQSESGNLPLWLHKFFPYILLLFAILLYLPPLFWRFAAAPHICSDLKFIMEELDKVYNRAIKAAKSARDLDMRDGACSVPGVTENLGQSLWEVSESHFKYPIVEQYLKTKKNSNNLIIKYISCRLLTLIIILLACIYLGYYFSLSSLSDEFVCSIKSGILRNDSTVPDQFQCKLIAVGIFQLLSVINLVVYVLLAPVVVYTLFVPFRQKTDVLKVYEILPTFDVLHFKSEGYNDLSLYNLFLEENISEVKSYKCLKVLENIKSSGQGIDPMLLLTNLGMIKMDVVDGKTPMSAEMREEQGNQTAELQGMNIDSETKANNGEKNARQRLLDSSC
T1 sequence (Q96RD7 whole entry): as above

With `CC1(C)[C@@H](OC(=O)CCC(=O)O)CC[C@]2(C)[C@H]3C(=O)C=C4[C@@H]5C[C@@](C)(C(=O)O)CC[C@]5(C)CC[C@@]4(C)[C@]3(C)CC[C@@H]12` [CBX, carbenoxolone] the “reduction of TNFα-mediated ATP release” value (HUVEC; HUVEC) was 86.4%, the “effect on TNFα-induced THP-1 monocyte adhesion” value [1] was “significantly reduced” and the “inhibition of TNFα-mediated ATP release” value (HSaVEC; HSaVEC) was 69.7%.
In the case of `CC(C)(C)n1nc(-c2ccc(Cl)cc2)c2c(N)ncnc21` [PP2], the “effect on Panx1 Y198 phosphorylation induced by c-Src overexpression” value (Panx1; HUVEC) was “blocked”, the “effect on TNFα-induced Panx1 phosphorylation at Y198” value (Panx1; HUVEC and HSaVECs, pretreatment with PP2) was “blocked” and the “effect of inhibitor on TNFα-induced ATP release” value (from here on “effect of inhibitor”) (HUVEC; HUVEC) was “significantly blunted”. The “effect of inhibitor” value (HSaVEC; HSaVEC) was “significantly blunted”, the “effect of inhibitor” value [2] was “blunting ATP release” and the “effect on TNFα-induced Y416 phosphorylation of SFK” value (Src Family Kinases (SFK)) was “reduced Y416 phosphorylation to baseline levels”.
For `Nc1ncnc2c1cnn2-c1ccccc1` [PP3], the “effect of inhibitor” value (HUVEC; HUVEC) was “no significant effect”, the “effect of inhibitor” value (HSaVEC; HSaVEC) was “no significant effect” and the “effect on TNFα-induced Y416 phosphorylation of SFK” value (Src Family Kinases (SFK)) was “no effect”.
For `CC(C)[C@H](NC(=O)c1ccc2ccccc2n1)C(=O)N[C@@H](CC(=O)O)C(=O)COc1c(F)cccc1F` [Q-VD-OPh], the “effect of inhibitor” value (HUVEC; HUVEC) was “lack of inhibition”.
For `[La]` [lanthanum], the “effect of inhibitor” value (HUVEC; HUVEC) was “failed to reduce ATP release”.
With `N.N.N.N.N.N.N.N.N.N.N.N.N.N.[Cl-].[Cl-].[Cl-].[Cl-].[Cl-].[Cl-].[O-2].[O-2].[Ru+3].[Ru+3].[Ru+4]` [ruthenium red] the “effect of inhibitor” value (HUVEC; HUVEC) was “ruled out the involvement” and the “effect of inhibitor” value (HSaVEC; HSaVEC) was “ruled out the involvement”.
With `CC/C(=C(\c1ccccc1)c1ccc(OCCN(C)C)cc1)c1ccccc1` [tamoxifen] the “effect on TNFα-induced leukocyte adhesion” value (C57B1/6J mice) was “no effect” and the “effect on TNFα-induced leukocyte emigration” value (C57B1/6J mice) was “no effect”.
With Apyrase the “effect on TNFα-induced THP-1 monocyte adhesion” value [1] was “significantly reduced”.
For “IL-1β: recombinant human pro-inflammatory cytokine”, the “ATP release on cytokine stimulation” value (HUVEC; HUVEC monolayers) was “failed to promote ATP release”, the “degree of ATP release on co-administration with TNFα vs TNFα alone” value (HUVEC; HUVEC, TNFα 10 ng/mL plus increasing IL-1β) was “did not significantly alter” and the “ATP release on cytokine stimulation” value (HSaVEC; HSaVEC monolayers) was “failed to promote ATP release”. The “degree of ATP release on co-administration with TNFα vs TNFα alone” value (HSaVEC; HSaVEC, TNFα 10 ng/mL plus increasing IL-1β) was “did not significantly alter”.
In the case of “KYPIVEQYLKYGRKKQRRR (hybrid of human and HIV tat seq.) [IL2/PanX peptide]”, the “effect on TNFα-induced THP-1 monocyte adhesion” value [1] is listed as “ability to block leukocyte adhesion” and the “inhibition of pannexin1 channel (previously shown / known)” value (pannexin1 channel) is listed as “potent and specific inhibitor”.
With WRQAAFVDSY [^10panx1] the “reduction of TNFα-mediated ATP release” value (HUVEC; HUVEC) was 70.9%, the “effect on TNFα-induced THP-1 monocyte adhesion” value [1] was “significantly reduced” and the “effect on TNFα-induced YO-PRO-1 dye uptake” value (Panx1 channels in HUVEC) was “significantly attenuated”. For the same compound, the “inhibition of TNFα-mediated ATP release” value (HSaVEC; HSaVEC) was 75.2% and the “inhibition of pannexin1 channel (previously shown / known)” value (pannexin1 channel) was “block pannexin-1 gap junctions”.
